Measurements published in PMC9323974, “Palladium(II) Complexes of Substituted Salicylaldehydes: Synthesis, Characterization and Investigation of Their Biological Profile” (Pharmaceuticals, 2022).

Assays:
[1] = tested on: Staphylococcus aureus ATCC 6538; test: MIC determination; assay type: cell-based; conditions: 24 h; for MIC: value in parentheses, read-out: MIC S. aureus
Method: (§1) S2 Antibacterial activity
(§2) The antimicrobial activity of the compounds was evaluated by determining their respective MIC values towards two Gram–(–) (Escherichia coli NCTC 29212 (E. coli) and Xanthomonas campestris ATCC 1395 (X. campestris)) and two Gram–(+) (Staphylococcus aureus ATCC 6538 (S. aureus) and Bacillus subtilis ATCC 6633 (B. subtilis)) bacterial species. Cultures of these microbial strains were grown on a rich selective agar medium and stored at 4°C. The selective media used were Nutrient Agar or Broth for B. subtilis and S. aureus, Yeast Mold Agar or Broth for X. campestris and Luria Agar or Broth for E. coli. Cells picked from the surface of the stored cultures were used to initiate liquid pre–cultures of the same selective medium at an initial turbidity of roughly 1 McFarland unit. Pre–cultures were incubated for 24 h in a rotary shaking incubator and subsequently they were used to inoculate the test cultures used for the determination of MIC at an initial turbidity of 0.5 McFarland units. The test cultures consisted of Mueller –Hinton broth (Deben Diagnostics Ltd) containing different concentrations of the compounds.
(§3) Different concentrations were achieved as follows: the compounds were freshly dissolved in DMSO to a concentration of 1 mg mL–1 and they were diluted with DMSO, using the method of progressive double dilution. Therefore, working solutions with decreasing concentrations of the compounds under investigation were achieved. The working solutions were subsequently diluted to the final desired concentration by addition to the growth medium at a proportion of 2:98. MIC values were determined as the lowest concentrations of the tested compounds that inhibited visible growth of each respective organism after a 24 h incubation [ S3]. Bacterial growth was determined by measuring the turbidity of appropriately diluted cultures at 600 nm with reference to equally diluted sterile growth medium and the inhibition achieved was calculated by comparing the turbidity of each culture to the average of the turbidity of three non–inhibited cultures. All test cultures were grown in triplicates and for the determination of MIC, growth had to be inhibited in at least two cultures of the triplicate. Incubation temperature at all stages was 37°C except for X. campestris that was cultivated at 28°C [S4].

[2] = tested on: Bacillus subtilis ATCC 6633; test: MIC determination; assay type: cell-based; conditions: 24 h; for MIC: value in parentheses, read-out: MIC B. subtilis
Method: as §1, §2, §3

[3] = tested on: Escherichia coli NCTC 29212; test: MIC determination; assay type: cell-based; conditions: 24 h; for MIC: value in parentheses, read-out: MIC E. coli
Method: as §1, §2, §3

[4] = tested on: Xanthomonas campestris ATCC 1395; test: MIC determination; assay type: cell-based; conditions: 24 h
Method: as §1, §2, §3

EB-DNA adduct (CT DNA) = test: EB-displacement from EB-DNA (fluorescence); assay type: binding, calf; conditions: for ΔΙ/Ι0 (%) EB-DNA fluorescence quenching: [EB] = 20 μM, [DNA] = 26 μM; for EB-DNA relative fluorescence emission intensity, % of the initial: λemission = 592 nm, final value; for kq (EB-DNA quenching constant): τo = 23 ns
Method: page 8: […] spectroscopy, viscosity measurements and fluorescence emission spectroscopy studies. […] UV-vis spectroscopy was used for the evaluation of the interaction of the compounds with CT DNA, and specifically the possible binding modes of the compounds to CT DNA. Control experiments with DMSO were performed and no changes in the spectra of CT DNA were observed. In order to determine the binding mode, the UV-vis spectra of the compounds were […] concentrations of CT DNA for diverse r (r = [complex]/[DNA]) values. Effective use of the changes […] compounds were calculated by the Wolfe-[…] equation (eq. […] εf) versus [DNA]: (eq. S1) where [DNA] = the concentration of DNA in base pairs, ε f= the extinction coefficient for the free compound at the corresponding λmax, εA = Aobsd/[compound] and εb= the extinction coefficient for the compound in the fully bound form. K b is given by the ratio of slope to the y intercept in plots [DNA]/(εA-εf) versus [DNA]. S3.2 CT DNA-binding studies by viscosity measurements […] presence of increasing amounts of the compounds. The experiments were executed at room temperature and the measurements are devised in a plot (η/η 0)1/3 versus r, where η = the viscosity of DNA in the presence of the compound, and η0 = the viscosity of neat DNA in buffer solution. […] In order to determine and confirm the DNA-binding mode of the compounds, a competitive study with EB as an intercalating marker is performed by fluorescence emission spectroscopy. Therefore, the EB-displacing ability of the compounds from its EB-DNA conjugate was examined. […] solution (150 mM NaCl and 15 mM trisodium citrate at pH 7.0). The potential intercalation of the compounds between the DNA-bases was studied by the addition of a certain amount of the 8 (1 picture or pasted object on this page, not shown here) page 9: compound solution into the EB-DNA adduct solution. The influence of the compounds on the EB- DNA solution was monitored through the changes of the fluorescence emission spectra at excitation wavelength (λex) at 540 nm [S6]. […] Bearing that in mind, the observed quenching of the EB-DNA solution is evidently associated to the displacement of EB from its EB-DNA adduct. The quenching efficiency (KSV) for each compound was assessed according to the Stern - Volmer equation (eq. S2) [S6]: (eq. S2) where I0 and I = the fluorescence emission intensities of EB-DNA in the absence and presence of the quencher, respectively, [Q] = the concentration of the quencher (i.e. compounds). K SV is obtained from the Stern-Volmer plots by the slope of the diagram I0/I versus [Q]. Taking τ0 = 23 ns […] M-1s-1) of the compounds can be determined according to e quation S3: KSV = kqτo (eq. S3) 9 (1 picture or pasted object on this page, not shown here)

HSA = target: T1, HSA (Homo sapiens, UniProt P02768); test: Competitive HSA-fluorescence studies with warfarin and ibuprofen; assay type: binding
T1 construct: purchased Sigma-Aldrich Co

[5] = ABTS radical cation scavenging; conditions: compound 0.1 mM
Method: S1 Antioxidant biological assay
The antioxidant activity of the compounds was evaluated via their ability to scavenge in […]
vitro free radicals such as DPPH and ABTS and to reduce H2O2. […]
S1.2 Assay of radical cation ABTS–scavenging activity
The ABTS assay was performed to determine the activity of the compounds to scavenge the […]
radical cation ABTS. Initially, a water solution of ABTS was prepared (2 mM). ABTS radical cation […]
(ABTS+·) was produced by the reaction of ABTS stock solution with potassium persulfate (0.17 […]
mM) and the mixture was stored in the dark at room temperature for 12–16 h before its use. The […]
ABTS was oxidized incompletely because the stoichiometric reaction ratio of ABTS and potassium […]
persulfate is 1:0.5. The absorbance became maximal and stable only after more than 6 h of reaction […]
although the oxidation of the ABTS started immediately. The radical was stable in this form for […]
more than 2 days when allowed to stand in the dark at room temperature. Afterwards, the ABTS+· […]
solution was diluted in ethanol to an absorbance of 0.70 at 734 nm and 10 μL of diluted compounds or standards (0.1 mM) in DMSO were added. The absorbance was recorded out exactly 1 min after […]
initial mixing [S1]. The ABTS radical scavenging activity was expressed as the percentage inhibition of the absorbance of the initial ABTS solution (ABTS%). […]

T1 sequence (P02768 25-609): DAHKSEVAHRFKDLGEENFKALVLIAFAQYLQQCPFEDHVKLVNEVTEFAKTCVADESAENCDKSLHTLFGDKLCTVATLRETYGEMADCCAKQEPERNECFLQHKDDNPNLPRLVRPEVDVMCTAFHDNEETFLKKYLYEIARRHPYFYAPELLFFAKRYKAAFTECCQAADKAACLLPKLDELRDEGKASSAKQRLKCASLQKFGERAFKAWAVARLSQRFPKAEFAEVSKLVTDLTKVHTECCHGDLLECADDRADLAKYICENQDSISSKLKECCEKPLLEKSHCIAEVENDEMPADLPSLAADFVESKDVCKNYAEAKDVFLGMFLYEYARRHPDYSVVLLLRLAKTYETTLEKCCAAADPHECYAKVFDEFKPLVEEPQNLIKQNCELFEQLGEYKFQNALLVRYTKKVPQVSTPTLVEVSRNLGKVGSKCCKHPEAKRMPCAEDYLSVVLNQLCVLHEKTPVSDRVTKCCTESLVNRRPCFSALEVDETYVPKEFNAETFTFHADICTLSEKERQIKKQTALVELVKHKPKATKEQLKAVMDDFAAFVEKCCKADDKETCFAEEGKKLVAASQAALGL

For O=Cc1cc(F)ccc1[O-].O=Cc1cc(F)ccc1[O-].[Pd+2] [Complex 4, [Pd(5-F-salo)2]], the “MIC S. aureus” value [1] was 100 µg/mL, the MIC [1] was 259 µM and the “MIC B. subtilis” value [2] was 100 µg/mL. The MIC [2] was 259 µM, the “MIC E. coli” value [3] was 100 µg/mL and the MIC [3] was 259 µM. For the same compound, the “MIC X. campestris” value [4] was 100 µg/mL, the “MIC X. campestris” value ([4]; value in parentheses) was 259 µM and the “KSV (Stern–Volmer constant), EB-DNA” value (EB-DNA adduct (CT DNA)) was 5.71 (±0.10) × 10^4 M^−1. For the same compound, the “ΔΙ/Ι0 (%) EB-DNA fluorescence quenching” value (EB-DNA adduct (CT DNA)) was 51.4%, the “EB-DNA relative fluorescence emission intensity, % of the initial” value (EB-DNA adduct (CT DNA)) was 48.6% and the “kq (EB-DNA quenching constant)” value (EB-DNA adduct (CT DNA)) was 2.48 (±0.04) × 10^12 M^−1s^−1. For the same compound, the “HSA-binding constant K, Marker: Ibuprofen” value (HSA) was 1.10 (±0.08) × 10^5 M^−1, the “HSA-binding constant K, No Marker” value (HSA) was 1.38 (±0.05) × 10^5 M^−1 and the “HSA-binding constant K, Marker: Warfarin” value (HSA) was 8.98 (±0.82) × 10^4 M^−1. The ABTS% [5] was 63.30 ± 0.53%.

For COc1ccc(C=O)c([O-])c1.COc1ccc(C=O)c([O-])c1.[Pd+2] [Complex 5, [Pd(4-OMe-salo)2]], the “MIC S. aureus” value [1] was 100 µg/mL, the MIC [1] was 245 µM and the “MIC B. subtilis” value [2] was 100 µg/mL. For the same compound, the MIC [2] was 245 µM, the “MIC E. coli” value [3] was 100 µg/mL and the MIC [3] was 245 µM. The “MIC X. campestris” value [4] was 100 µg/mL, the “MIC X. campestris” value ([4]; value in parentheses) was 245 µM and the “KSV (Stern–Volmer constant), EB-DNA” value (EB-DNA adduct (CT DNA)) was 4.26 (±0.08) × 10^4 M^−1. For the same compound, the “ΔΙ/Ι0 (%) EB-DNA fluorescence quenching” value (EB-DNA adduct (CT DNA)) was 44.2%, the “EB-DNA relative fluorescence emission intensity, % of the initial” value (EB-DNA adduct (CT DNA)) was 55.8% and the “kq (EB-DNA quenching constant)” value (EB-DNA adduct (CT DNA)) was 1.85 (±0.04) × 10^12 M^−1s^−1. The “HSA drug site preference” value (HSA; drug site I (warfarin) vs II (ibuprofen)) was “did not seem to show firmly a selectivity”, the “HSA-binding constant K, Marker: Ibuprofen” value (HSA) was 1.45 (±0.17) × 10^4 M^−1 and the “HSA-binding constant K, No Marker” value (HSA) was 3.56 (±0.12) × 10^5 M^−1. The “HSA-binding constant K, Marker: Warfarin” value (HSA) was 1.00 (±0.18) × 10^5 M^−1 and the ABTS% [5] was 96.66 ± 0.46%.
